Each structure is given as a SMILES string.

A short description of the data set: gradient 5% acetonitrile 3 min, to 50% in 2 min, to 85% in 15 min, held 3 min, 100 µL/min. The settings on record: column: Zorbax Extend-C18 2.1 x 50 mm; eluents: water / acetonitrile, 0.1% formic acid. The gist of the method: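 A Zorbax Extend-C18 column (2.1 × 50 mm, 1.8 μm) run at 100 μL/min with water and acetonitrile, both containing 0.1% formic acid, separated mixtures of ~100 pure standards. The HPLC was coupled to a quadrupole time-of-flight mass spectrometer operated in positive and negative ionization mode, with dead and dwell volumes of 40 μL and 900 μL. Each retention time was taken from a computationally picked adduct peak that was then manually inspected.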
In turn, `CCn1cc(S(=O)(=O)N2CCC(c3noc(-c4ccccc4)n3)C2)cn1` (centres undefined) yielded an RP-LC retention time of 881 s.

`CCCNC(=O)C1CCCN(c2nc3ncn(CC(=O)Nc4cccc(C(C)C)c4)c(=O)c3s2)C1` (centres undefined) had an RP-LC retention time of 802 s.

With `Nc1nc(-c2ccccc2)nn1C(=O)c1ccc(F)cc1`, the RP-LC retention time came out at 974 s.

Molecule `CCOCC(=O)Nc1ccc(-c2ccc(S(C)(=O)=O)nn2)cc1` displayed an RP-LC retention time of 645 s.

In turn, `CCOCCCN1C(=O)CN(C2CCCCCC2)C(=O)C1c1ccc(OC)cc1` (centres undefined) showed an RP-LC retention time of 902 s.

The molecule `CCN1C(=O)c2cc(C(=O)Nc3ccc(Cl)cc3)nn2CC1(C)C(=O)NC1CCCC1` (centres undefined) had an RP-LC retention time of 860 s.

For the molecule `CN1C(=O)Cc2cc(C(=O)NCc3ccccc3Cl)ccc21`, the RP-LC retention time was 738 s.

The molecule `Clc1ccc(-c2nnc(Cc3nc(-c4cccs4)no3)o2)cc1` showed an RP-LC retention time of 1000 s.

`CN(C)c1cc(-n2cnc(C(=O)NCc3ccccc3Cl)c2)ncn1`: the RP-LC retention time was 813 s.

Molecule `COC(=O)c1cccc(NC(=O)c2[nH]c3cc(C)sc3c2CN2CCOCC2)c1` yielded an RP-LC retention time of 673 s.

`CC(C)Cn1c(=O)c(N2CCN(C(=O)NCc3ccc(F)cc3)CC2)nc2ccncc21` came in with an RP-LC retention time of 668 s.

As for `COCCCNC(=O)C1CCCN(c2nccnc2Sc2ccccc2)C1` (centres undefined), the RP-LC retention time is 849 s.

Regarding `Cn1c(C2CCN(C(=O)c3cc4c(s3)CCCC4)C2)nc2ccncc21` (centres undefined), the RP-LC retention time came to 562 s.

Turning to `Cc1cccc(NS(=O)(=O)c2cc3n(c2)CCCNC3=O)c1C`, the RP-LC retention time is 658 s.

Molecule `Cc1ccccc1OCC(=O)Nc1ccc2c(c1)N(S(=O)(=O)c1ccccc1)CCC2` registered an RP-LC retention time of 1030 s.

Regarding `CCCCn1c(CN2CCOCC2)nc2cc(NC(=O)C(C)C)ccc21`, the RP-LC retention time is 648 s.

In turn, `CCn1cc(S(=O)(=O)N2CC3(CCCCC3)CC2COc2ccc(OC)cc2)cn1` (centres undefined) came in with an RP-LC retention time of 1090 s.

On to `O=C(c1ccc2c(c1)OCO2)N1CCC(n2nc(-c3ccsc3)ccc2=O)CC1`, for which the RP-LC retention time amounted to 764 s.

Molecule `Cc1ccc(NC(=O)c2ccccc2[N+](=O)[O-])c(C(=O)c2ccccc2)c1` yielded an RP-LC retention time of 955 s.

The molecule `Cc1cc(=O)n(CC(=O)Nc2ccc3c(c2)OCCO3)c(N2CCc3ccccc3C2)n1` displayed an RP-LC retention time of 732 s.

For `CCN(CC)C(=O)Cn1nc(-c2nc(-c3ccc(F)cc3)no2)ccc1=O`, the RP-LC retention time was 861 s.

Take `CC(C)Cn1c(=O)c(C(=O)NCc2cccc(C(F)(F)F)c2)nc2cccnc21`: the RP-LC retention time worked out at 1030 s.

Regarding `Cc1nn(CC(=O)NC2CCCc3ccccc32)c(=O)c2c(C)n(-c3ccccc3)nc12` (centres undefined), the RP-LC retention time was determined as 937 s.

Molecule `CCOc1ccc(-c2noc(Cc3nc(-c4ccc5c(c4)OCO5)cs3)n2)cc1` displayed an RP-LC retention time of 1200 s.

Turning to `Cn1c(C(=O)NCCCN2CCCC2=O)cc2c(=O)oc3ccccc3c21`, the RP-LC retention time came out at 668 s.

`COC(=O)c1cccc(NC(=O)NC2CCN(c3ccc(C)c(C)c3)C2=O)c1` (centres undefined) had an RP-LC retention time of 847 s.

With `COCCCNC(=O)N1CCCC1c1nc(-c2ccccc2C)no1` (centres undefined), the RP-LC retention time is 785 s.

With `Cc1noc(-c2ccc(OC3CN(S(=O)(=O)c4cn(C)cn4)C3)cc2)n1`, the RP-LC retention time is 796 s.

Molecule `CCOC(=O)C1CCN(c2cc3c(cc2NC(=O)C(C)(C)C)n(C)c(=O)c(=O)n3C)CC1` registered an RP-LC retention time of 844 s.

Take `Cc1ccc2c(c1)OCC(=O)N2CC(=O)NC1CC1`: the RP-LC retention time was determined as 701 s.

Regarding `Cc1ccc(NC(=O)Nc2nccn(-c3ccc(C)c(C)c3)c2=O)cc1C`, the RP-LC retention time was determined as 1150 s.

Take `Cc1sc(C)c(S(=O)(=O)Nc2ccccc2Cl)c1-c1cc(C(F)(F)F)on1`: the RP-LC retention time came out at 1140 s.

`CN(C)S(=O)(=O)c1ccc2c(c1)N(CC(=O)NCc1ccc(Cl)cc1)C(=O)C1CCCCN21` (centres undefined) came in with an RP-LC retention time of 932 s.

The molecule `CCc1nc(-c2csc(S(=O)(=O)N3CCCC(C(=O)N4CCc5ccccc54)C3)c2)no1` (centres undefined) returned an RP-LC retention time of 1110 s.

`CCOC(=O)c1[nH]c(C)c(C(=O)C(C)N(CC(C)C)C(=O)c2ccc(Cl)cc2)c1C` (centres undefined) gave an RP-LC retention time of 1080 s.

`O=C(Nc1ccc(-c2nnc3n2CCCC3)cc1)c1ccc2ccccc2n1` displayed an RP-LC retention time of 773 s.

On to `CC(C)CCNC(=O)c1ccc2ccnc(N3CCN(c4ccc(Cl)cc4)CC3)c2c1`, for which the RP-LC retention time was found to be 992 s.

`Cn1c(=O)c2nc(S(=O)(=O)CCC(=O)Nc3ccc(F)cc3F)n(C)c2n(C)c1=O` returned an RP-LC retention time of 737 s.

For `CC(C)Cc1noc(C2(F)CCN(S(=O)(=O)c3ccc(C(C)(C)C)cc3)CC2)n1`, the RP-LC retention time amounted to 601 s.

`CCOC(=O)c1nnn(C(CC)C(=O)Nc2ccc(OC)cc2)c1C(=O)OCC` (centres undefined): the RP-LC retention time is 814 s.

For the molecule `O=C(c1cn2nc(Cl)ccc2n1)N1CCN(c2ccc(F)cc2)CC1`, the RP-LC retention time stood at 826 s.

As to `Cc1ccc(-c2nc3ncccn3c2Nc2cccc(Cl)c2C)cc1`, the RP-LC retention time was determined as 915 s.

In turn, `CCS(=O)(=O)Nc1ccc(-c2noc(C(C)NC(=O)c3ccccc3)n2)cc1` (centres undefined) yielded an RP-LC retention time of 777 s.

As for `CN(CC1(C)CCOCC1)S(=O)(=O)c1ccc(C(F)(F)F)cc1`, the RP-LC retention time was found to be 997 s.

On to `CCC1Oc2ccc(S(=O)(=O)N3CCC(C(=O)Nc4cccc(Cl)c4)CC3)cc2NC1=O` (centres undefined), for which the RP-LC retention time was found to be 892 s.

For the molecule `COc1ccc(-c2csc3c(=O)n(Cc4cccc(OC)c4)cnc23)cc1`, the RP-LC retention time was 1030 s.

`COc1ccc(S(=O)Cc2ccc(C(=O)NCCCN3CCCCC3)o2)cc1` (centres undefined) gave an RP-LC retention time of 587 s.

In turn, `CCCn1c(=O)c(C)nc2cc(-c3noc(-c4ccc(OC)c(OC)c4)n3)ccc21` returned an RP-LC retention time of 1090 s.

Turning to `Cc1ccc(CNC(=O)C2CCN(c3cnc(N4CCCC4)nc3)CC2)cc1C`, the RP-LC retention time came out at 716 s.

`CC1CCN(S(=O)(=O)c2nn(Cc3ccccc3)cc2C(=O)O)CC1` gave an RP-LC retention time of 882 s.

For the molecule `COc1ccc(-c2noc(C3CC(=O)N(c4ccc(C)c(F)c4)C3)n2)cc1OC` (centres undefined), the RP-LC retention time stood at 984 s.

As to `O=C(CSCc1ccccc1)Nc1cc(=O)[nH]c(=O)[nH]1`, the RP-LC retention time stood at 629 s.

As to `COc1ccccc1-c1nnc(-c2cc(S(=O)(=O)N(C)C)ccc2Cl)o1`, the RP-LC retention time turned out to be 904 s.

As to `CN(C)C(=O)c1cccc(COc2ccc(N3C(N)=NC(N)=NC3(C)C)cc2Cl)c1`, the RP-LC retention time is 659 s.

With `COc1ccc2[nH]cc(CCNC(=O)CCc3nnc(C(=O)Nc4ccccc4)s3)c2c1`, the RP-LC retention time is 803 s.

With `CC(NC(=O)C1CCCN(c2ccc(=O)n(-c3cccc(F)c3)n2)C1)c1ccccc1` (centres undefined), the RP-LC retention time stood at 868 s.

On to `COc1nn(C)cc1C(=O)NCC1(c2ccc(F)cc2)CC1`, for which the RP-LC retention time came out at 751 s.

`COc1ccccc1NS(=O)(=O)c1cc2c3c(c1)CCC(=O)N3CCC2` had an RP-LC retention time of 799 s.

`Cc1cc(N2CCN(S(=O)(=O)c3cccc(F)c3)CC2)nc(NC2CCCCC2)n1`: the RP-LC retention time worked out at 797 s.

Molecule `Fc1ccc(CN2CCC(N3CC4(CCCCC4)C3c3ccncc3)CC2)cc1F` (centres undefined) showed an RP-LC retention time of 604 s.

Molecule `CN1C(=O)c2cc(C(=O)NCc3ccccc3)nn2CC1(C)C(=O)NC1CCCCCC1` (centres undefined) came in with an RP-LC retention time of 791 s.

With `CCNc1cc(N2CCCC(CCC(=O)NCCC(C)C)C2)ncn1` (centres undefined), the RP-LC retention time worked out at 662 s.

Turning to `COc1cccc(N2CCN(C(=O)CN3CCN(Cc4ccccc4)C(=O)C3=O)CC2)c1`, the RP-LC retention time was 726 s.

Molecule `Cc1nn(-c2ccc(Cl)cc2)c(C)c1S(=O)(=O)N1CCC(C(=O)N2CCCCC2)CC1` returned an RP-LC retention time of 995 s.

Molecule `NC(=O)C1CCN(C(=O)CN2CCC(Cc3ccccc3)CC2)CC1` returned an RP-LC retention time of 591 s.

For `CCOC(=O)c1c(C)oc2ncnc(Nc3cc(Cl)ccc3OC)c12`, the RP-LC retention time was 1360 s.

Molecule `Cn1cc(CCN2CCN(S(=O)(=O)c3ccc(F)c(Cl)c3)CC2)c2cccnc21` had an RP-LC retention time of 660 s.

In turn, `N[C@@H](Cc1cc(CP(=O)(O)O)cc(-c2ccccc2Cl)c1)C(=O)O` displayed an RP-LC retention time of 647 s.

The molecule `COC(=O)c1cccc(Nc2c(-c3cccc(Br)c3)nc3cnccn23)c1` registered an RP-LC retention time of 918 s.

As to `N#Cc1ccc(-c2cnc3[nH]cc(NC(=O)c4cccnc4)c3c2)cc1`, the RP-LC retention time came to 738 s.

For the molecule `O=C(O)c1cnc(N2CCSCC2)nc1-c1cccc(Cl)c1`, the RP-LC retention time came to 964 s.

On to `COc1ccc2c(c1)c(CC(=O)OCC(=O)O)c(C)n2C(=O)c1ccc(Cl)cc1`, for which the RP-LC retention time was 958 s.

Turning to `COC(=O)c1ccc2c(=O)n(-c3cccc(OC)c3)c(N3CCCCCC3)nc2c1`, the RP-LC retention time was 1210 s.

Turning to `O=C(c1ccccc1Br)N1CCN(c2cc(-c3ccc(F)cc3)[nH]n2)CC1`, the RP-LC retention time was determined as 824 s.

`CCc1nnc(-c2cn(CC(=O)Nc3ccc(F)c(F)c3)c3ccccc23)o1` registered an RP-LC retention time of 888 s.

`Cc1noc2ncnc(NCCN(C)Cc3ccccc3)c12` had an RP-LC retention time of 580 s.

`Nc1nc(N2CCCC2)nc2ccccc12`: the RP-LC retention time stood at 592 s.

In turn, `COCCCNC(=O)C(C)n1c(=O)c(C(F)(F)F)nc2cc(C)c(C)cc21` (centres undefined) displayed an RP-LC retention time of 1010 s.

`CSc1ccc(CCNC(=O)Cn2nc(-n3cccc3)c3c(C)cc(C)nc32)cc1` returned an RP-LC retention time of 1050 s.

Source of the values: the METLIN SMRT retention time set (Domingo-Almenara et al. 2019).
